According to ChEMBL document CHEMBL2073948, “Interactions of the human multidrug resistance proteins MRP1 and MRP2 with organic anions” (Mol Pharmacol, 2000):

How the values were obtained:
Format in all cases: functional, cell membranes, Membrane vesicle
[1] = molecular target: T1, ATP-binding cassette sub-family C member 2 (Homo sapiens, UniProt Q92887); test: TP_TRANSPORTER: inhibition of NEM-GS uptake (NEM-GS: 4 uM, Probenecid: <1000 uM) in membrane vesicles from MRP2-expressing Sf9 cells
[2] = molecular target: T2, Multidrug resistance-associated protein 1 (Homo sapiens, UniProt P33527); test: TP_TRANSPORTER: inhibition of NEM-GS uptake (NEM-GS: 4 uM, Probenecid: <1000 uM) in membrane vesicles from MRP1-expressing Sf9 cells
[3] = molecular target: T1, ATP-binding cassette sub-family C member 2; test: TP_TRANSPORTER: uptake in membrane vesicles from MRP2-expressing Sf9 cells
[4] = molecular target: T2, Multidrug resistance-associated protein 1; test: TP_TRANSPORTER: uptake in membrane vesicles from MRP1-expressing Sf9 cells
[5] = molecular target: T1, ATP-binding cassette sub-family C member 2; test: TP_TRANSPORTER: inhibition of NEM-GS uptake (NEM-GS: 4 uM, Furosemide: 5000 uM) in membrane vesicles from MRP2-expressing Sf9 cells; settings: sf9, 5000 µM

T1 sequence (Q92887 whole entry): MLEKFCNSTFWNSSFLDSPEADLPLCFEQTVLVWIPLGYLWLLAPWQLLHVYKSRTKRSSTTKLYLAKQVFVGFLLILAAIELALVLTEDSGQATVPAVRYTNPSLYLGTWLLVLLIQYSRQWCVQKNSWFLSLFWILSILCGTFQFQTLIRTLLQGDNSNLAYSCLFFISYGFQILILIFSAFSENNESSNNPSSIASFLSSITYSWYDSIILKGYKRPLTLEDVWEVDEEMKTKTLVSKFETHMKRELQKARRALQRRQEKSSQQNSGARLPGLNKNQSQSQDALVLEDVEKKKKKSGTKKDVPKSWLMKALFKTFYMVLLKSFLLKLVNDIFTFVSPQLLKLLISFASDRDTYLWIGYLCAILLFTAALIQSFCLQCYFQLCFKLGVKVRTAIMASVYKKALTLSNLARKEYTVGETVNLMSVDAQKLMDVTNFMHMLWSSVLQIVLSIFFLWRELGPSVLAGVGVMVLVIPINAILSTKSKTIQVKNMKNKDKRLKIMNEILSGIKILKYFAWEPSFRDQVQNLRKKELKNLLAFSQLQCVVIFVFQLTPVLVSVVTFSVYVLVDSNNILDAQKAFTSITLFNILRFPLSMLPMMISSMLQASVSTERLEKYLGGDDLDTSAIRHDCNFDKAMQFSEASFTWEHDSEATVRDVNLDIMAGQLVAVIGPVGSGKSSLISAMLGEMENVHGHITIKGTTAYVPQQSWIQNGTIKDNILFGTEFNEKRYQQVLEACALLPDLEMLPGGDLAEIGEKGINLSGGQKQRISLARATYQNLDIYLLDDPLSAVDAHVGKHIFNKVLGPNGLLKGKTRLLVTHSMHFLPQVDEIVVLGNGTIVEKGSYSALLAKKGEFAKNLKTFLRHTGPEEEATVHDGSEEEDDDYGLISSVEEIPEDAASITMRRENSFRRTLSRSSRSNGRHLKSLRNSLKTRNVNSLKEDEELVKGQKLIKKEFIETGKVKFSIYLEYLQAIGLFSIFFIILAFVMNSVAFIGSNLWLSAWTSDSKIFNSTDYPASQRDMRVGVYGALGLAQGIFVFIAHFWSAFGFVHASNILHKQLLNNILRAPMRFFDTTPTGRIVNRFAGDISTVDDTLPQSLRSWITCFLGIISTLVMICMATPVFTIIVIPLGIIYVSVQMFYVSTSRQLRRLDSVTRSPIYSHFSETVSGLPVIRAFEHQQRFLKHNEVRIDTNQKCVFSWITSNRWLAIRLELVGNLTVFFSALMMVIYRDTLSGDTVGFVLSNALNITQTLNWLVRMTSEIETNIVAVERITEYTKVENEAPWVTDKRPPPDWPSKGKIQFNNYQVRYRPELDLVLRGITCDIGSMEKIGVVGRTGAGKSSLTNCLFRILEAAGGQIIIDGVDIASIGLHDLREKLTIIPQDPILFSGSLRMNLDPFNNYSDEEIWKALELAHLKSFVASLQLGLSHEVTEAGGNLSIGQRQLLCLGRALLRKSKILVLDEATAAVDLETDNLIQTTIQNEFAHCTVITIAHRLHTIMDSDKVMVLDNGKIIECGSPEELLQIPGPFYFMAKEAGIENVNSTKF
T2 sequence (P33527 whole entry): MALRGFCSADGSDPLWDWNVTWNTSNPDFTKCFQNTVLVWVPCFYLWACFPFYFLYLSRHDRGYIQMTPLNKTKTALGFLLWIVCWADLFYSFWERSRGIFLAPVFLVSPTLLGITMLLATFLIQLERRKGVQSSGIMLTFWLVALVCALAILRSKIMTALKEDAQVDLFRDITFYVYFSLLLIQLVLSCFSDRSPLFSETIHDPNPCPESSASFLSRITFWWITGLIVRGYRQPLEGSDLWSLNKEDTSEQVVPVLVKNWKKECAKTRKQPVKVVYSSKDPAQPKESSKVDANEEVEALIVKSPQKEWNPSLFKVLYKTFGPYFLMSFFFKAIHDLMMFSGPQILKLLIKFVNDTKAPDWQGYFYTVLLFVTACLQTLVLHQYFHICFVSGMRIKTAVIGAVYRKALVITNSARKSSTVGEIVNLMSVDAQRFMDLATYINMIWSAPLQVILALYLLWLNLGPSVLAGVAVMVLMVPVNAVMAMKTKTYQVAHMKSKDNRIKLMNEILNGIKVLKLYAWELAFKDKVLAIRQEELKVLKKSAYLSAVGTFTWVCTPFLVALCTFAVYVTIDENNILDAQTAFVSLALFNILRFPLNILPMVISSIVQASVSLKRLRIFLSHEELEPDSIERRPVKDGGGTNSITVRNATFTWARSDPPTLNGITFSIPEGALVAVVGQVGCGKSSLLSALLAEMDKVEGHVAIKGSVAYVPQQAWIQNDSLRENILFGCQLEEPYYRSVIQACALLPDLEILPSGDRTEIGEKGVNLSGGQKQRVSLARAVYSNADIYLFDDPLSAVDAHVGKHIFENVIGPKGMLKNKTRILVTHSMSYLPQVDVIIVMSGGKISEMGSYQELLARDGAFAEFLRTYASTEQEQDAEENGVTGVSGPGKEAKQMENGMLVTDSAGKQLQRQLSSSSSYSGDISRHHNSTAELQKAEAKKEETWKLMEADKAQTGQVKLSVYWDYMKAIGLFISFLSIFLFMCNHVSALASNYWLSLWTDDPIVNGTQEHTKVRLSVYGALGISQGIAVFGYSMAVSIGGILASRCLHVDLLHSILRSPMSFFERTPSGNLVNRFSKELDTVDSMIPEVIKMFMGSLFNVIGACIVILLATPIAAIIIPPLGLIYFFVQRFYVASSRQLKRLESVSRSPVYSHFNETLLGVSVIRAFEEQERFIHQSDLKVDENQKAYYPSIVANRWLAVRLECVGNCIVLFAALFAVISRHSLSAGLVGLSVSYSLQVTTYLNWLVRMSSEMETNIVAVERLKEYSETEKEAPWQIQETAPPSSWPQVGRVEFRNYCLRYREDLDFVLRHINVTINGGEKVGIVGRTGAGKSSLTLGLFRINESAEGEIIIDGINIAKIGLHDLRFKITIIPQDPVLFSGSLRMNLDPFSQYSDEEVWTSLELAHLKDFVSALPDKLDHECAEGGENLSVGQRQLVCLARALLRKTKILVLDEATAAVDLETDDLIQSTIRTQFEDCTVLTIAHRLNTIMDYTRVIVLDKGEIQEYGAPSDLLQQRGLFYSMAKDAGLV

In the case of CCCN(CCC)S(=O)(=O)c1ccc(C(=O)O)cc1 [PROBENECID], the Activity [1] is reported as “inhibitor [+]” and the Activity [2] is reported as “inhibitor [+]”.
NC(CCC(=O)NC(CNCC(=O)O)CSCCN1C(=O)C=CC1=O)C(=O)O (stereo not given) showed a K1/2 [3] of 2500 µM and a K1/2 [4] of 200 µM.
With NS(=O)(=O)c1cc(C(=O)O)c(NCc2ccco2)cc1Cl [FUROSEMIDE] the Activity [5] was “inhibitor [+]”.
